ChEMBL document CHEMBL4819044, “Discovery of a Hydroxypyridinone APJ Receptor Agonist as a Clinical Candidate” (J Med Chem, 2021)
Converted amounts (≈) assume the structure as drawn.

Columns and labels:
[1] = Metabolic stability in human liver microsomes assessed as parent compound remaining incubated for 10 mins in presence of NADPH by triple quadrupole mass spectrometry; format: ADME, Microsome; settings: read-out: Stabilty
Apelin receptor [2] = target: T1, Apelin receptor (Rattus norvegicus, UniProt Q9JHG3); experiment: Agonist activity at rat APJ receptor expressed in human HEK293 cells assessed as inhibition of forskolin-induced cAMP accumulation incubated for 1 hr by TR-FRET assay; format: functional, cell-based
T1 sequence (Q9JHG3 whole entry): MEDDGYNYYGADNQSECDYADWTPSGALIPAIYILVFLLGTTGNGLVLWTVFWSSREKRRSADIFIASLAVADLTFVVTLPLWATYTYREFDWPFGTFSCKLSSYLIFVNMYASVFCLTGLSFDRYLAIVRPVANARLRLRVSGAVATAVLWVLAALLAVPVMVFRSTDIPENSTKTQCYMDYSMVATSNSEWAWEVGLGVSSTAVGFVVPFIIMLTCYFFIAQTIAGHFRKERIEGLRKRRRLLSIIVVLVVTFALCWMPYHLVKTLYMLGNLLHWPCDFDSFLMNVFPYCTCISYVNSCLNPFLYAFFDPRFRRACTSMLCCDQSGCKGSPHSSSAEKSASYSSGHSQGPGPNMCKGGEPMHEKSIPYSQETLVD

[3] = Metabolic stability in rat liver microsomes assessed as parent compound remaining incubated for 10 mins in presence of NADPH by triple quadrupole mass spectrometry; format: ADME, Microsome; settings: read-out: Stabilty
Apelin receptor [4] = target: T2, Apelin receptor (Homo sapiens, UniProt P35414); experiment: Agonist activity at human APJ receptor expressed in human HEK293 cells assessed as inhibition of forskolin-induced cAMP accumulation incubated for 1 hr by TR-FRET assay; format: functional, cell-based
T2 sequence (P35414 whole entry): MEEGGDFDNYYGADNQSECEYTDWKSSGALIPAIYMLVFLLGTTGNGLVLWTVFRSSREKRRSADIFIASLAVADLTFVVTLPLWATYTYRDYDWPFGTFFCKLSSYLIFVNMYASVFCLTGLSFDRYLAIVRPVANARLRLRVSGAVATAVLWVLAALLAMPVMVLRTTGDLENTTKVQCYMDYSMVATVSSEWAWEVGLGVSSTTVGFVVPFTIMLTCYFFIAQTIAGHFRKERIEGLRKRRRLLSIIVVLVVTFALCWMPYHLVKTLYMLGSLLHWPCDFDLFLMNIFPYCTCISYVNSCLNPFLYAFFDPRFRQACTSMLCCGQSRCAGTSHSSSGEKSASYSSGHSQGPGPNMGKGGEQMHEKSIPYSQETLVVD

[5] = Oral bioavailability in cynomolgus monkey at 3 mg/kg measured measured up to 72 hrs by LC/MS/MS analysis; format: ADME, organism-based, Macaca fascicularis; settings: in vivo
in vivo [6] = settings: Sprague-Dawley, rat, po, 3 mg/kg
Description: AUC (0 to infinity) in Sprague-Dawley rat at 3 mg/kg, po measured up to 48 hrs by LC/MS/MS analysis

[7] = Oral bioavailability in Sprague-Dawley rat at 3 mg/kg measured measured up to 48 hrs by LC/MS/MS analysis; format: ADME, organism-based; settings: in vivo
in vivo [8] = settings: cynomolgus monkey, po, 3 mg/kg
Description: Cmax in cynomolgus monkey at 3 mg/kg, po measured measured up to 48 hrs by LC/MS/MS analysis

[9] = Half life in cynomolgus monkey at 3 mg/kg, po measured measured up to 72 hrs by LC/MS/MS analysis; settings: in vivo
Rattus norvegicus [10] = experiment: Hemodynamic activity in Sprague-Dawley rat model of acute pressure-volume loop assessed as peripheral vasodilation by measuring free plasma drug concentration at 10 ug/kg/min administered as iv infusion measured at 5 mins; format: functional; settings: dose 10 µg/kg/min
[11] = Urinary excretion in cynomolgus monkey at 3 mg/kg, po measured measured up to 72 hrs by LC/MS/MS analysis; settings: in vivo
Rattus norvegicus [12] = experiment: Hemodynamic activity in Sprague-Dawley rat model of acute pressure-volume loop assessed as increase in cardiac output at 10 ug/kg/min administered as iv infusion measured at 5 mins relative to control; format: functional; settings: dose 10 µg/kg/min
[13] = Stability in monkey liver microsomes assessed as parent compound remaining at 30 uM incubated for 45 mins; format: ADME, Macaca mulatta, Microsome; settings: rhesus monkey, read-out: Stabilty
Apelin receptor [14] = target: T2, Apelin receptor; experiment: Displacement of [3H]Apelin-13 from human APJ receptor stably expressed in human HEK293 cell membrane incubated for 120 mins by TopCount scintillation plate reader analysis; format: cell membranes
in vivo [15] = settings: cynomolgus monkey, po, 3 mg/kg; remark: listed apart in the source
Description: AUC (0 to infinity) in cynomolgus monkey at 3 mg/kg, po measured measured up to 72 hrs by LC/MS/MS analysis

[16] = Glutathione reactivity of the compound assessed as GSH-adduct formation; format: physicochemical
[17] = Renal clearance in Sprague-Dawley rat at 3 mg/kg, po measured up to 48 hrs by LC/MS/MS analysis; format: ADME, organism-based; settings: in vivo
[18] = Stability in rat liver microsomes assessed as parent compound remaining at 30 uM incubated for 45 mins; format: ADME, Microsome; settings: read-out: Stabilty
in vivo [19] = settings: Sprague-Dawley, rat, po, 3 mg/kg; remark: listed apart in the source
Description: Cmax in Sprague-Dawley rat at 3 mg/kg, po measured up to 48 hrs by LC/MS/MS analysis

[20] = Solubility of compound in phosphate buffer pH 7.4 using excess solid incubated for 24 hrs under agitation condition by reverse phase LC analysis; format: physicochemical
[21] = Stability in human liver microsomes assessed as parent compound remaining at 30 uM incubated for 45 mins; format: ADME, Microsome; settings: read-out: Stabilty
cells [22] = settings: Canis lupus familiaris, HEK293, 1 h
[23] = Half life in Sprague-Dawley rat at 3 mg/kg, po measured up to 48 hrs by LC/MS/MS analysis; settings: in vivo
cells [24] = settings: Macaca mulatta, HEK293, 1 h

remaining at 10 min [1] [%] | EC50 (Apelin receptor [2]) [nM] | remaining at 10 min [3] [%] | EC50 (Apelin receptor [4]) [nM] | solubility thermodynamic at 24 h [20] [µg/mL] | SMILES | also measured
89 | 980 | 24 |  |  | CCCCc1[nH]c(=O)c(C(=O)OCC)c(O)c1-c1c(OC)cccc1OC | 
88 | 7.3 | 38 | 2.6 |  | CCCCc1nc(O)c(-c2nnc(Cc3cccc(Cl)c3)o2)c(O)c1-c1c(OC)cccc1OC | 
99 | 450 | 36 |  |  | CCCCc1[nH]c(=O)c(-c2nnc(-c3ccc(Cl)cc3)o2)c(O)c1-c1c(OC)cccc1OC | 
87 | 31 | 53 |  |  | CCCCc1[nH]c(=O)c(-c2nnc(Cc3ccccc3)o2)c(O)c1-c1c(OC)cccc1OC | 
69 | 120 | 54 |  |  | CCCCc1[nH]c(=O)c(-c2nc(Cc3ccccc3)no2)c(O)c1-c1c(OC)cccc1OC | 
91 | 0.024 | 92 | 0.023 | 220 (≈ 441 µM) | CCOCc1nc(O)c(-c2nnc(Cc3ccc(Cl)cn3)o2)c(O)c1-c1c(OC)cccc1OC [BMS-986224] | bioavailability [5]: 56%; AUC(0-inf) at 48 h (in vivo [6]): 34 µM·h; bioavailability [7]: 77%; Cmax at 48 h (in vivo [8]): 1.5 µM; half-life at 72 h [9]: 3.6 h; Cp(f) (Rattus norvegicus [10]): 18 nM; dose excreted in urine [11]: 12%; Activity (Rattus norvegicus [12]): 12%; remaining at 0.75 h, 30 µM [13]: > 95%; Ki (Apelin receptor [14]): 0.074 nM; AUC(0-inf) at 72 h (in vivo [15]): 15.3 µM·h; Drug metabolism [16]: Not Active; dose excreted at 48 h [17]: 4%; remaining at 0.75 h, 30 µM [18]: > 95%; Cmax at 48 h (in vivo [19]): 5.6 µM; remaining at 0.75 h, 30 µM [21]: > 95%; EC50 (cells [22]): 0.03 nM; half-life at 48 h [23]: 2.5 h; EC50 (cells [24]): 0.08 nM
36 | 430 | 15 |  |  | CCCCc1[nH]c(=O)c(-c2n[nH]c(Cc3ccccc3)n2)c(O)c1-c1c(OC)cccc1OC | 
94 | 0.23 | 74 | 0.12 | 26 (≈ 52.2 µM) | CCOCc1nc(O)c(-c2nnc(Cc3ccc(Cl)cc3)o2)c(O)c1-c1c(OC)cccc1OC | 
66 | 1.2 | 22 | 0.4 | < 1 | CCCCc1nc(O)c(-c2nnc(Cc3ccc(Cl)cc3)o2)c(O)c1-c1c(OC)cccc1OC | 
96 | 0.58 | 76 | 0.17 | 110 (≈ 220 µM) | CCOCc1[nH]c(=O)c(-c2nnc(Cc3ccc(Cl)nc3)o2)c(O)c1-c1c(OC)cccc1OC | 
82 | 18 | 24 | 8.6 |  | CCCCc1nc(O)c(-c2nnc(Cc3ccccc3Cl)o2)c(O)c1-c1c(OC)cccc1OC | 
80 | 0.51 | 66 | 0.24 | 4 (≈ 7.87 µM) | COc1cccc(OC)c1-c1c(C2CCCC2)[nH]c(=O)c(-c2nnc(Cc3ccc(Cl)cc3)o2)c1O | 
88 | 15 | 51 | 11 | 12 (≈ 25 µM) | COc1cccc(OC)c1-c1c(C2CC2)[nH]c(=O)c(-c2nnc(Cc3ccc(Cl)cc3)o2)c1O | 
86 | 1.4 | 73 |  | 73 (≈ 147 µM) | COCCc1[nH]c(=O)c(-c2nnc(Cc3ccc(Cl)cc3)o2)c(O)c1-c1c(OC)cccc1OC | 
